ChEMBL document CHEMBL1201862, “PubChem BioAssay data set” (2004)
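Cells were grown in 96-well plates and exposed to each compound for 48 hours at five concentrations; endpoints were interpolated linearly between bracketing concentrations, or set to the highest concentration if not reached. GI50: concentration for 50% inhibition of growth.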 The source made the active and inactive calls. Rule as the data show it: active = GI50 up to about 1.1 µM and inactive = higher.

Columns and labels:
Experiment in all cases: NCI tumour cell line growth inhibition, 48 h
786-0 = system: 786-0
A498 = system: A498
A549 = system: A549
ACHN = system: ACHN
BT-549 = system: BT-549
CAKI-1 = system: CAKI-1
CCRF-CEM = system: CCRF-CEM
COLO 205 = system: COLO 205
DLD-1 = system: DLD-1
DMS-114 = system: DMS-114
DU-145 = system: DU-145
EKVX = system: EKVX
HCC 2998 = system: HCC 2998
HCT-116 = system: HCT-116
HCT-15 = system: HCT-15
HL-60 = system: HL-60
HOP-18 = system: HOP-18
HOP-62 = system: HOP-62
HOP-92 = system: HOP-92
HT-29 = system: HT-29
Hs-578T = system: Hs-578T
IGROV-1 = system: IGROV-1
K562 = system: K562
KM-20L2 = system: KM-20L2
KM12 = system: KM12
LOX IMVI = system: LOX IMVI
LXFL 529 = system: LXFL 529
M14 = system: M14
M19-MEL = system: M19-MEL
MCF7 = system: MCF7
MDA-MB-231 = system: MDA-MB-231
MDA-MB-435 = system: MDA-MB-435
MDA-N = system: MDA-N
MOLT-4 = system: MOLT-4
Malme-3M = system: Malme-3M
NCI-H226 = system: NCI-H226
NCI-H23 = system: NCI-H23
NCI-H460 = system: NCI-H460
NCI-H522 = system: NCI-H522
NCI/ADR-RES = system: NCI/ADR-RES
OVCAR-3 = system: OVCAR-3
OVCAR-4 = system: OVCAR-4
OVCAR-5 = system: OVCAR-5
OVCAR-8 = system: OVCAR-8
PC-3 = system: PC-3
RPMI-8226 = system: RPMI-8226
RXF 393 = system: RXF 393
SF-268 = system: SF-268
SF-295 = system: SF-295
SF-539 = system: SF-539
SK-MEL-28 = system: SK-MEL-28
SK-MEL-2 = system: SK-MEL-2
SK-MEL-5 = system: SK-MEL-5
SK-OV-3 = system: SK-OV-3
SN12C = system: SN12C
SNB-19 = system: SNB-19
SNB-75 = system: SNB-75
SNB-78 = system: SNB-78
SR = system: SR
SW-620 = system: SW-620
T47D = system: T47D
TK-10 = system: TK-10
U-251 = system: U-251
UACC-257 = system: UACC-257
UACC-62 = system: UACC-62
UO-31 = system: UO-31
XF498 = system: XF498

With `O=c1[nH]c(=O)n(C2OC(CO)C(O)C(O)C2O)cc1F` (configuration not stated) the GI50 (786-0) was > 100 µM (inactive), the GI50 (A498) was > 100 µM (inactive) and the GI50 (A549) was > 100 µM (inactive). For the same compound, the GI50 (ACHN) was > 100 µM (inactive), the GI50 (BT-549) was > 100 µM (inactive) and the GI50 (CAKI-1) was > 100 µM (inactive). For the same compound, the GI50 (CCRF-CEM) was > 100 µM (inactive), the GI50 (COLO 205) was > 100 µM (inactive) and the GI50 (DLD-1) was > 100 µM (inactive). For the same compound, the GI50 (DMS-114) was > 100 µM (inactive), the GI50 (DU-145) was > 100 µM (inactive) and the GI50 (EKVX) was > 100 µM (inactive). The GI50 (HCC 2998) was > 100 µM (inactive), the GI50 (HCT-116) was > 100 µM (inactive) and the GI50 (HCT-15) was over 100 µM. The GI50 (HL-60) was > 64.4 µM (inactive), the GI50 (HOP-18) was > 100 µM (inactive) and the GI50 (HOP-62) was > 100 µM (inactive). The GI50 (HOP-92) was > 12.7 µM (inactive), the GI50 (HT-29) was > 100 µM (inactive) and the GI50 (Hs-578T) was > 100 µM (inactive). For the same compound, the GI50 (IGROV-1) was > 100 µM (inactive), the GI50 (K562) was > 100 µM (inactive) and the GI50 (KM-20L2) was > 100 µM (inactive). For the same compound, the GI50 (KM12) was > 100 µM (inactive), the GI50 (LOX IMVI) was > 100 µM (inactive) and the GI50 (LXFL 529) was > 100 µM (inactive). For the same compound, the GI50 (M14) was > 100 µM (inactive), the GI50 (M19-MEL) was > 100 µM (inactive) and the GI50 (MCF7) was > 100 µM (inactive). For the same compound, the GI50 (MDA-MB-231) was > 100 µM (inactive), the GI50 (MDA-MB-435) was > 100 µM (inactive) and the GI50 (MDA-N) was > 100 µM (inactive). For the same compound, the GI50 (MOLT-4) was > 100 µM (inactive), the GI50 (Malme-3M) was > 100 µM (inactive) and the GI50 (NCI-H226) was > 100 µM (inactive). For the same compound, the GI50 (NCI-H23) was > 100 µM (inactive), the GI50 (NCI-H460) was > 100 µM (inactive) and the GI50 (NCI-H522) was > 100 µM (inactive). For the same compound, the GI50 (NCI/ADR-RES) was > 100 µM (inactive), the GI50 (OVCAR-3) was > 100 µM (inactive) and the GI50 (OVCAR-4) was > 100 µM (inactive). For the same compound, the GI50 (OVCAR-5) was > 100 µM (inactive), the GI50 (OVCAR-8) was > 100 µM (inactive) and the GI50 (PC-3) was > 100 µM (inactive). For the same compound, the GI50 (RPMI-8226) was > 100 µM (inactive), the GI50 (RXF 393) was > 76.2 µM (inactive) and the GI50 (SF-268) was > 100 µM (inactive). For the same compound, the GI50 (SF-295) was > 100 µM (inactive), the GI50 (SF-539) was > 100 µM (inactive) and the GI50 (SK-MEL-28) was > 100 µM (inactive). For the same compound, the GI50 (SK-MEL-2) was > 100 µM (inactive), the GI50 (SK-MEL-5) was > 100 µM (inactive) and the GI50 (SK-OV-3) was > 100 µM (inactive). The GI50 (SN12C) was > 100 µM (inactive), the GI50 (SNB-19) was > 100 µM (inactive) and the GI50 (SNB-75) was > 88.5 µM (inactive). For the same compound, the GI50 (SNB-78) was > 100 µM (inactive), the GI50 (SR) was > 100 µM (inactive) and the GI50 (SW-620) was > 100 µM (inactive). For the same compound, the GI50 (T47D) was > 100 µM (inactive), the GI50 (TK-10) was > 100 µM (inactive) and the GI50 (U-251) was > 100 µM (inactive). For the same compound, the GI50 (UACC-257) was > 100 µM (inactive), the GI50 (UACC-62) was > 100 µM (inactive) and the GI50 (UO-31) was > 100 µM (inactive). For the same compound, the GI50 (XF498) was > 100 µM (inactive).
